Patent US12258422B2, “Cyclopeptide and method for preparing the same” (NATIONAL TSING HUA UNIVERSITY, priority 2020, dated 2025)
Several values for one entry are separate records, joined by “and”; a condition that tells them apart may be missing. Identical values can stand only once.

Legend:
[1] = system: hs68 human fibroblasts; experiment: Procollagen Type I C-Peptide (PIP) EIA, induction of procollagen secretion; assay type: cell-based
Source text: (§1) Type I collagen is the primary component of the skin dermis. Both the quantity and quality of extracellular collagen are primarily related to skin ageing. The present embodiment was examined, by using Procollagen Type I C-Peptide (PIP) EIA Kit, effects of induction of procollagen secretion and cytotoxicity in respect of hs68 human fibroblasts.

[2] = system: hs68 human fibroblasts; experiment: Cytotoxicity (cell viability) in anti-aging evaluation; assay type: cell-based; conditions: TGFβ; (sample/control) × 100%
Source text: as §1

[3] = system: MMP-1; experiment: MMP-1 inhibition test: TNF-α-induced MMP-1 level in skin fibroblasts, ELISA; assay type: cell-based, human; conditions: for MMP-1 Conc.: TNF-α 20 ng/mL, Hs68; for inhibition of MMP-1: compared to 3.3 μM of RA (set as 100%); for IC50: Hs68, TNF-α induced, calculated from inhibition rate vs concentration (FIG. 1, FIG. 2)
Description: Matrix Metalloproteinase-1 (MMP-1) is one of collagenases, and is involved in the degradation of the extracellular matrix (ECM). In details, fibroblasts result in the overexpression of MMP-1 after exposure to UV-containing sunlight, so that the ECM is then degraded by MMP-1.
To examine the effect of the cyclopeptide of the present disclosure, a series of MMP-1 inhibition test was conducted.
In this test, test compound and human fibroblasts were co-cultured, and cytokine tumor necrosis factor-α (TNF-α) was added as an inducer to induce the expression of MMP-1 to a high level. Then, the test compound was evaluated for the ability of reducing the MMP-1 level induced by TNF-α.
Test compound: cyclopeptide (III-3) of the present disclosure, in which Q is Cl.
Cell Line: Skin Fibroblast Hs68
First, the seeding of skin fibroblast Hs68 cells onto culture medium dish was conducted overnight, and then different concentrations (0.05 μM, 0.25 μM, 1.25 μM, 2.5 μM and 5 μM) of cyclopeptide (III-3) were added to the skin fibroblast cells for 6 hours, which was further incubated with TNF-α (20 ng/mL) for 42 hours.

[4] = Cytotoxicity (cell viability) in anti-aging evaluation; assay type: cell-based, human; conditions: human, hs68 human fibroblasts, (sample/control) × 100%
Source text: as §1

TGFβ [reference compound]
Procollagen Type I ([1]; TGFβ 0.83 μM): 320 ng/mL
Cell viability [2]: 95%

CC1=C(/C=C/C(C)=C/C=C/C(C)=C/C(=O)O)C(C)(C)CCC1 [RA, retinoic acid, reference compound]
MMP-1 Conc. ([3]; RA 3.3 μM (positive control)): 155.9 pg/mL and 271.3 pg/mL

CC(C)[C@H]1CC[C@H](C)CC12NC(=O)[C@@H](Cc1ccccc1)NC(=O)[C@H](CC(=O)O)NC(=O)CNC(=O)[C@H](CCCNC(=N)N)NC2=O (stereo partly drawn) [III-3]
inhibition of MMP-1 ([3]; 0.05 μM): about 60%
inhibition of MMP-1 ([3]; 0.25 μM): about 80%
inhibition of MMP-1 ([3]; 1.25 μM): ~87%
inhibition of MMP-1 ([3]; 2.5 μM): ~91%
IC50 [3]: 20 nM
MMP-1 Conc. ([3]; cyclopeptide 0.05 μM): 337.8 pg/mL
MMP-1 Conc. ([3]; cyclopeptide 0.25 μM): 244.2 pg/mL
MMP-1 Conc. ([3]; cyclopeptide 1.25 μM): 212.7 pg/mL
MMP-1 Conc. ([3]; cyclopeptide 2.5 μM): 194.2 pg/mL
MMP-1 Conc. ([3]; cyclopeptide 5 μM): 168.6 pg/mL

N=C(N)NCCC[C@@H]1NC(=O)C2(CCNCC2)NC(=O)[C@@H](Cc2ccccc2)NC(=O)[C@H](CC(=O)O)NC(=O)CNC1=O [III-1]
inhibition of MMP-1 ([3]; 0.05 μM): 12%
inhibition of MMP-1 ([3]; 0.25 μM): 38%
inhibition of MMP-1 ([3]; 1.25 μM): 90%
IC50 [3]: 700 nM
MMP-1 Conc. ([3]; cyclopeptide 0.05 μM): 422.3 pg/mL
MMP-1 Conc. ([3]; cyclopeptide 0.25 μM): 378.2 pg/mL
MMP-1 Conc. ([3]; cyclopeptide 1.25 μM): 288.0 pg/mL
MMP-1 Conc. ([3]; cyclopeptide 2.5 μM): 271.8 pg/mL

N=C(N)NCCC[C@@H]1NC(=O)C2(CCCCC2)NC(=O)[C@@H](Cc2ccccc2)NC(=O)[C@H](CC(=O)O)NC(=O)CNC1=O [III-5]
Procollagen Type I ([1]; cyclopeptide 0.0008 μM): 235 ng/mL
Procollagen Type I ([1]; cyclopeptide 0.004 μM): 225 ng/mL
Procollagen Type I ([1]; cyclopeptide 0.02 μM): 220 ng/mL
Procollagen Type I ([1]; cyclopeptide 0.1 μM): 208 ng/mL
Procollagen Type I ([1]; cyclopeptide 0.25 μM): 208 ng/mL
Procollagen Type I ([1]; cyclopeptide 0.5 μM): 184 ng/mL
viability at 0.0008 µM ([4]; cyclopeptide 0.0008 μM): 92%
viability at 0.004 µM ([4]; cyclopeptide 0.004 μM): 97%
viability at 0.02 µM ([4]; cyclopeptide 0.02 μM): 100%
viability at 0.1 µM ([4]; cyclopeptide 0.1 μM): 97%
viability at 0.25 µM ([4]; cyclopeptide 0.25 μM): 99%
viability at 0.5 µM ([4]; cyclopeptide 0.5 μM): 100%
